“And” between values parts separate entries of the source, which are not always exact repeats. Identical values can stand only once.
Test: Accelerated and long term stability study of TTI-101 (Batch A, Batch B): HPLC assay, purity, impurities and water content after storage at 5° C., 25° C./60% RH, 30° C./65% RH or 40° C./75% RH
Assay type: physicochemical
Experimental: Exemplary HPLC conditions: diluent was 0.1% trifluoroacetic acid (TFA) in acetonitrile, Mobile Phase A was 0.05% TFA in water, and Mobile Phase B was 0.05% TFA in acetonitrile, column (Agilent, Eclipse XDB-C18, 3.0×100 mm, particle size 1.8 μm), flow (0.425 mL/min), and detector (280 nm diode array).
Batch A was prepared analogously using Method 3 as described in Example 1. Batch B was prepared according to Method 5 as described in Example 1.
Samples of TTI-101 were stored at 5° C., 25° C./60% RH, 30° C./65% RH, or 40° C./75% RH. TTI-101 was stored in an LDPE bag enclosed with a Nylon cable tie and then transferred to another LDPE bag and enclosed with a Nylon cable tie. The enclosure was put into an HDPE bottle and closed with a polyethylene-lined polypropylene cap. The samples were stored under the above-identified conditions.
The samples were analyzed using HPLC with the exemplary conditions identified above. Relative retention time (RRT) for Compound 5 was about 0.83, Compound 4 was about 1.05-1.06, Compound 6 was about 1.15-1.17, and compound of formula (IV) was about 0.99.
• NA not applicable • NQ ≥0.02% and <0.05% • Avg average • Cmpd compound • — no peak • M month • RRT relative retention time

[1] = Storage 25° C./60% RH, 6 M, Prep P1-P2
[2] = Storage 25° C./60% RH, 6 M, Prep P1-P2, listed as Batch B
[3] = Storage 25° C./60% RH, 9 M, Avg
[4] = Storage 25° C./60% RH, 9 M, Prep P1-P2
[5] = Storage 25° C./60% RH, 9 M, Prep P1-P2, listed as Batch B
[6] = Storage 40° C./75% RH, 0 M, Avg
[7] = Storage 40° C./75% RH, 0 M, Prep P1-P5
[8] = Storage 40° C./75% RH, 0 M, Prep P1-P5, listed as Batch B
[9] = Storage 40° C./75% RH, 1 M, Avg
[10] = Storage 40° C./75% RH, 1 M, Prep P1-P2
[11] = Storage 40° C./75% RH, 3 M, Avg
[12] = Storage 40° C./75% RH, 3 M, Prep P1-P2
[13] = Storage 40° C./75% RH, 3 M, Prep P1-P2, listed as Batch B
[14] = Storage 40° C./75% RH, 6 M, Avg
[15] = Storage 40° C./75% RH, 6 M, Prep P1-P2
[16] = Storage 40° C./75% RH, 6 M, Prep P1-P2, listed as Batch B

In the case of `COc1ccc(S(=O)(=O)Nc2cc(-c3c(O)ccc4ccccc34)c(O)c3ccccc23)cc1` [TTI-101], the “Impurity RRT 0.84” value [1] is reported as “NQ (≥0.02% and <0.05%)”, the “Impurity RRT 0.87” value [1] is reported as “NQ (≥0.02% and <0.05%)” and the “Impurity RRT 1.05” value [1] is reported as “NQ (≥0.02% and <0.05%)”. The “Impurity RRT 1.06 (Cmpd 4)” value [1] was “NQ (≥0.02% and <0.05%)”, the “Impurity RRT 1.39” value [1] was “NQ (≥0.02% and <0.05%)” and the “Water Content” value [1] was <0.04%. For the same compound, the Assay [2] was 99.0% and 98.5%, the “Impurity RRT 1.17 (Cmp 6)” value [2] was 0.23 area % and 0.25 area % and the Purity [2] was 99.6% and 99.5%. For the same compound, the Assay [3] was 99.0%, the “Impurities Total” value [3] was 0.4 area % and the “Impurity RRT 0.84” value [3] was “NQ (≥0.02% and <0.05%)”. For the same compound, the “Impurity RRT 0.87” value [3] was “NQ (≥0.02% and <0.05%)”, the “Impurity RRT 0.99” value [3] was 0.12 area % and the “Impurity RRT 1.02” value [3] was 0.06 area %. For the same compound, the “Impurity RRT 1.16 (Cmp 6)” value [3] was 0.18 area %, the “Impurity RRT 1.39” value [3] was “NQ (≥0.02% and <0.05%)” and the Purity [3] was 99.5%. The “Water Content” value [3] was 0.1%, the “Impurities Total” value [4] was 0.4 area % and the “Impurity RRT 0.84” value [4] was “NQ (≥0.02% and <0.05%)”. The “Impurity RRT 0.87” value [4] was “NQ (≥0.02% and <0.05%)”, the “Impurity RRT 1.02” value [4] was 0.06 area % and the “Impurity RRT 1.16 (Cmp 6)” value [4] was 0.18 area %. For the same compound, the “Impurity RRT 1.39” value [4] was “NQ (≥0.02% and <0.05%)”, the “Water Content” value [4] was 0.1% and the Assay [5] was 99.7% and 98.2%. The “Impurity RRT 0.99” value [5] was 0.12 area % and 0.13 area %, the Purity [5] was 99.6% and 99.5% and the Assay [6] was 99.4%. For the same compound, the “Impurities Total” value [6] was 0.1 area %, the “Impurity RRT 0.61” value [6] was 0.05 area % and the “Impurity RRT 0.86” value [6] was “NQ (≥0.02% and <0.05%)”. For the same compound, the “Impurity RRT 0.88” value [6] was “NQ (≥0.02% and <0.05%)”, the “Impurity RRT 0.99” value [6] was “NQ (≥0.02% and <0.05%)” and the “Impurity RRT 1.16 (Cmp 6)” value [6] was 0.07 area %. For the same compound, the Purity [6] was 99.8%, the “Water Content” value [6] was 0.1% and the “Water Content” value (Storage 40° C./75% RH, 0 M, Prep P1-P2) was 0.1%. For the same compound, the “Impurities Total” value [7] was 0.1 area %, the “Impurity RRT 0.86” value [7] was “NQ (≥0.02% and <0.05%)” and the “Impurity RRT 0.99” value [7] was “NQ (≥0.02% and <0.05%)”. For the same compound, the Purity [7] was 99.8%, the Assay [8] was 99.0% and 100.5% and 99.3% and 99.5% and 98.8% and the “Impurity RRT 1.16 (Cmp 6)” value [8] was 0.08 area % and 0.07 area %. For the same compound, the Assay [9] was 99.2%, the “Impurities Total” value [9] was 0.6 area % and the “Impurity RRT 0.80” value [9] was “NQ (≥0.02% and <0.05%)”. The “Impurity RRT 0.84” value [9] was “NQ (≥0.02% and <0.05%)”, the “Impurity RRT 0.87” value [9] was “NQ (≥0.02% and <0.05%)” and the “Impurity RRT 0.99” value [9] was 0.14 area %. For the same compound, the “Impurity RRT 1.02” value [9] was 0.06 area %, the “Impurity RRT 1.05” value [9] was “NQ (≥0.02% and <0.05%)” and the “Impurity RRT 1.06 (Cmpd 4)” value [9] was “NQ (≥0.02% and <0.05%)”. The “Impurity RRT 1.17 (Cmp 6)” value [9] was 0.38 area %, the “Impurity RRT 1.39” value [9] was 0.05 area % and the Purity [9] was 99.3%. For the same compound, the “Water Content” value [9] was 0.1%, the “Impurities Total” value [10] was 0.6 area % and the “Impurity RRT 0.80” value [10] was “NQ (≥0.02% and <0.05%)”. For the same compound, the “Impurity RRT 0.84” value [10] was “NQ (≥0.02% and <0.05%)”, the “Impurity RRT 0.87” value [10] was “NQ (≥0.02% and <0.05%)” and the “Impurity RRT 0.99” value [10] was 0.14 area %. The “Impurity RRT 1.02” value [10] was 0.06 area %, the “Impurity RRT 1.05” value [10] was “NQ (≥0.02% and <0.05%)” and the “Impurity RRT 1.06 (Cmpd 4)” value [10] was “NQ (≥0.02% and <0.05%)”. For the same compound, the “Impurity RRT 1.17 (Cmp 6)” value [10] was 0.38 area %, the “Impurity RRT 1.39” value [10] was 0.05 area % and the Purity [10] was 99.3%. The “Water Content” value [10] was 0.1%, the Assay (Storage 40° C./75% RH, 1 M, Prep P1-P2, listed as Batch B) was 99.1% and 99.4% and the Assay [11] was 98.7%. For the same compound, the “Impurities Total” value [11] was 1.0 area %, the “Impurity RRT 0.38” value [11] was “NQ (≥0.02% and <0.05%)” and the “Impurity RRT 0.80” value [11] was “NQ (≥0.02% and <0.05%)”. The “Impurity RRT 0.84” value [11] was “NQ (≥0.02% and <0.05%)”, the “Impurity RRT 0.87” value [11] was “NQ (≥0.02% and <0.05%)” and the “Impurity RRT 0.99” value [11] was 0.24 area %. For the same compound, the “Impurity RRT 1.02” value [11] was 0.19 area %, the “Impurity RRT 1.06 (Cmpd 4)” value [11] was “NQ (≥0.02% and <0.05%)” and the “Impurity RRT 1.17 (Cmp 6)” value [11] was 0.37 area %. For the same compound, the “Impurity RRT 1.39” value [11] was 0.16 area %, the Purity [11] was 98.9% and the “Water Content” value [11] was 0.04%. For the same compound, the “Impurity RRT 0.38” value [12] was “NQ (≥0.02% and <0.05%)”, the “Impurity RRT 0.80” value [12] was “NQ (≥0.02% and <0.05%)” and the “Impurity RRT 0.84” value [12] was “NQ (≥0.02% and <0.05%)”. For the same compound, the “Impurity RRT 0.87” value [12] was “NQ (≥0.02% and <0.05%)”, the “Impurity RRT 0.99” value [12] was 0.24 area % and the “Impurity RRT 1.02” value [12] was 0.19 area %. The “Impurity RRT 1.39” value [12] was 0.16 area %, the Purity [12] was 98.9% and the Assay [13] was 98.5% and 99.0%. The “Impurities Total” value [13] was 1.0 area % and 0.9 area %, the “Impurity RRT 1.17 (Cmp 6)” value [13] was 0.39 area % and 0.35 area % and the “Water Content” value [13] was <0.04% and 0.04%. For the same compound, the Assay [14] was 98.4%, the “Impurities Total” value [14] was 1.0 area % and the “Impurity RRT 0.39” value [14] was “NQ (≥0.02% and <0.05%)”. The “Impurity RRT 0.80” value [14] was “NQ (≥0.02% and <0.05%)”, the “Impurity RRT 0.84” value [14] was “NQ (≥0.02% and <0.05%)” and the “Impurity RRT 0.87” value [14] was “NQ (≥0.02% and <0.05%)”. For the same compound, the “Impurity RRT 0.99” value [14] was “NQ (≥0.02% and <0.05%)”, the “Impurity RRT 1.02” value [14] was 0.34 area % and the “Impurity RRT 1.06 (Cmpd 4)” value [14] was “NQ (≥0.02% and <0.05%)”. For the same compound, the “Impurity RRT 1.17 (Cmp 6)” value [14] was 0.30 area %, the “Impurity RRT 1.27” value [14] was “NQ (≥0.02% and <0.05%)” and the “Impurity RRT 1.39” value [14] was 0.34 area %. The Purity [14] was 98.9%, the “Water Content” value [14] was <0.04% and the “Impurities Total” value [15] was 1.0 area %. For the same compound, the “Impurity RRT 0.39” value [15] was “NQ (≥0.02% and <0.05%)”, the “Impurity RRT 0.80” value [15] was “NQ (≥0.02% and <0.05%)” and the “Impurity RRT 0.84” value [15] was “NQ (≥0.02% and <0.05%)”. The “Impurity RRT 0.87” value [15] was “NQ (≥0.02% and <0.05%)”, the “Impurity RRT 0.99” value [15] was “NQ (≥0.02% and <0.05%)” and the “Impurity RRT 1.02” value [15] was 0.34 area %. For the same compound, the “Impurity RRT 1.06 (Cmpd 4)” value [15] was “NQ (≥0.02% and <0.05%)”, the “Impurity RRT 1.39” value [15] was 0.34 area % and the “Water Content” value [15] was <0.04%. The Assay [16] was 98.6% and 98.2%, the “Impurity RRT 1.17 (Cmp 6)” value [16] was 0.31 area % and 0.29 area % and the Purity [16] was 98.8% and 98.9%. The stability (over 24 months) was “excellent stability”.
